The record followed here is patent US20240158413A1, “FUSED POLYCYCLIC SUBSTITUTED 5-CARBOXYLIC ACID THIENOPYRIMIDINE DIONE COMPOUND AND USE THEREOF” (SOTER BIOPHARMA PTE. LTD., priority 2021, published 2024).

Data set [1] has as its target human gonadotropin-releasing hormone receptor (Homo sapiens (Human), UniProt P30968). In words: FLIPR calcium flow assay of inhibitory activity on gonadotropin-releasing hormone receptor in GnRH/HEK293 cells. The data set is classed as cell-based. The note with it: Ca2+ flow, agonist Leuprolide acetate, read-out: IC50 on inhibiting the activity of human gonadotropin-releasing hormone receptor. As for the experimental part:
Objective of assay: to detect the inhibitory activity of assay compounds on gonadotropin-releasing hormone receptor at the cellular level using FLIPR detection technology.
GnRH/HEK293 (human embryonic kidney cell 293) cultured cells in the logarithmic growth phase were washed with DPBS (Dulbecco's phosphate buffered saline) buffer, and an appropriate amount of 0.05% EDTA (ethylenediaminetetraacetic acid)-trypsin was added. The cells were placed in a carbon dioxide incubator at 37° C. for digestion for 1-2 minutes, and then removed from the incubator. A medium was added to the cells to terminate the digestion. Cells were dispersed by repeated pipetting and harvested by centrifugation. […]
On the next day, 20 μL, of 2×Fluo-4Direct™ buffer was added to each well, and the plate was incubated in a 5% CO2, 37° C. incubator for 50 minutes. […] The fluorescence signal was read. Then 10 μL of the reference compound as an agonist was added, and the fluorescent signal was read. EC50 was calculated, and the agonist with a concentration of 6×EC50 was prepared.
2 mM assay compounds and an appropriate concentration of reference compound were serially diluted 4-fold to 10 concentrations in ECHO, and 900 nL of that was transferred to a compound plate. […] The fluorescent signal was read. Then 10 μL of agonist with a concentration of 6×EC50 was added to the cell plate and the fluorescent signal was read. […]

Data set [2] relates to endometriotic lesion in mice. As to the kind of experiment: In vivo efficacy evaluation in a mouse model of endometriosis. From the text:
Objective of assay: To evaluate the efficacy of the compound of the present disclosure in a mouse model of endometriosis.
Animal estrous cycle detection in 8-week-old C57BL6/J female mice: Through vaginal smear observation, mice that met the specific estrous cycle on the day of the assay were selected according to the actual smear results because the entire estrous cycle was about 4 days. Modeling: The uterine horns of donor mice in an estrous cycle were excised, and opened longitudinally. The excised biopsies were cut to a size of 2×2 mm. Recipient mice were anesthetized with isoflurane gas, and a 1 cm incision was made along the midline to expose the abdominal cavity. Endometriotic mice: four uterine fragments of donors were sutured to the peritoneal wall of mice in an estrous cycle; sham-operated mice: abdominal fat fragments of similar size were sutured. The grafted tissue as well as the abdominal muscle and skin were sutured using 8-0 black silk thread. Sham group (sham-operation group): the abdominal cavity of each mouse in the Sham group was opened to transplant fat fragments, and the rest of the steps were the same.
After 4 weeks of modelmg, a second laparotomy was performed, and the ectopic lesion volume (V1) was measured using a vernier caliper and calculated to determine the success of the modeling. Twelve mice with relatively uniform V1 were selected and divided into 2 groups with 6 nice in each group: Vehicle (vehicle control group) and drug group.
Sham group (sham-operation group, 6 animals): normal feeding; Vehicle group (vehicle control group, 6 animals); vehicle was intragastrically administered once a day for 8 consecutive weeks. […]
After 8 weeks of administration, samples were obtained from the mice: the ectopic lesion volume (V2) was measured using a vernier caliper and calculated. The inhibition rate was calculated using a calculation formula of: ectopic lesion volume V=π/6×length×width×height, wherein length represents the length of an ectopic lesion, width represents the width of an ectopic lesion, and height represents the height of an ectopic lesion;

Data set [3] can be described thus: Pharmacokinetic evaluation in mice (plasma). The data set is classed as in vivo. Particulars: mouse, male CD-1 mice. The method, then: Objective of assay: To study the in vivo pharmacokinetic properties of the compound of the present disclosure in mice.
Each assay compound was mixed with DMAC respectively, and vortexed for 2 minutes. The solution of the assay compound in DMAC was mixed and vortexed for 2 minutes to prepare a clear solution of 10 mg/mL. 0.0600 mL of 10 mg/mL solution was added to 0.300 mL of Solutol, and the mixture was vortexed for 2 minutes. Then 2.400 mL of normal saline was added, and the mixture was vortexed for 2 minutes to obtain a clear solution of 0.2 mg/mL, which was used for administration in PO group, 0.500 mL of the solution for administration in PO group was vortexed for 2 minutes, and 0.0500 mL of DMAC was added. The mixture was vortexed for 2 minutes, and then 0.0500 mL of solutol was added. The mixture was vortexed for 2 minutes, and finally 0.400 mL of normal saline was added. The mixture was vortexed for two minutes to give a clear solution of 0.1 mg/mL, which was filtered through a microporous membrane to give a solution for administration in injection (IV) group.
Four male CD-1 mice were divided into two groups. The animals in the first group were administered intravenously once at a dose of 0.5 mg/kg, wherein the vehicle was 10% DMAC/10% Solutol/80% normal saline, and the administration volume was 5 mL/kg. The animals in the second group were administered orally 2 mg/kg of the assay compound by oral gavage, wherein the oral vehicle was 10% DMAC/10% Solutol/80% normal saline, and the oral volume was 10 mL/kg. Whole blood was collected at 0.033 (IV injection only), 0.083, 0.25, 0.5, 1, 2, 4 and 12 hours post-dose. The whole blood was centrifuged at 3200 g at 2-8° C. for 10 min to obtain plasma. The concentration of the assay compound in plasma was determined by ILC/MS/MS method, and the pharmacokinetic parameters were calculated by Phoenix WinNonlin software.
The parameters have the following meanings: IV: intravenous injection; PO: oral administration; C0: initial plasma drug concentration; Cmax: maximum drug concentration in systemic circulation; Tmax: time required to reach Cmax; T1/2: half-life; Vdss: apparent volume of distribution; Cl: clearance rate; AUC0-last: area under the drug-time curve.

human gonadotropin-releasing hormone receptor, sequence (P30968 whole entry): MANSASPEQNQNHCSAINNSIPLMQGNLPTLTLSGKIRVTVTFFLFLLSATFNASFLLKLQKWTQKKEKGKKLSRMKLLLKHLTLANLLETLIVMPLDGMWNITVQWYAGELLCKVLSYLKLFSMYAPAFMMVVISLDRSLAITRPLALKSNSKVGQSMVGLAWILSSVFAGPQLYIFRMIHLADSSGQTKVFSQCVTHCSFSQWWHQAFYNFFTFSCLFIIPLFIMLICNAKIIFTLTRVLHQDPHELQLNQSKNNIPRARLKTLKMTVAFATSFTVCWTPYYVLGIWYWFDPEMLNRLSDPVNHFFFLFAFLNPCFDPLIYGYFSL

Turning to `O=C(O)c1scc2[nH]c(=O)n(-c3cc4c(cc3F)OCCCOc3ccc(F)c(F)c3CO4)c(=O)c12` [Compound 1], the concentration for half-maximal inhibition (IC50) (as a rule, the concentration that inhibits the measured activity by half) in data set [1] was determined as 3.2 nM. Further, the “Volume of endometriotic lesion in mice V1” value in data set [2] (Mean ± SD, n = 6, 4 weeks after modeling, before administration (baseline)) is recorded as 9.89 ± 1.51 mm^3. Further, in data set [2] (Mean ± SD, n = 6, after 8 weeks of 100 mpk intragastric once daily), the “Volume of endometriotic lesion in mice V2” value turned out to be 6.78 ± 4.46 mm^3. Moreover, the Inhibition rate in data set [2] (ectopic lesion volume, 100 mpk intragastric once daily for 8 weeks) is on record as 107.5%. For the same molecule, in data set [3] (IV 0.5 mg/kg), the AUC(0-t) (commonly exposure summed from dosing to a finite time, without extrapolation to infinity) worked out at 48.3 µM·h; the C0 came to 13.5 µM; the clearance (as a rule, the volume of plasma or blood freed of the substance per unit of time) is 0.332 mL/min/kg; the half-life (in general, how long it takes for the measured level to halve) is 340 min. For the same molecule, in data set [3] (IV 0.5 mg/kg, read-out: Vdss), the Vd was 0.159 L/kg. In data set [3] (PO 2 mg/kg vs IV 0.5 mg/kg), the bioavailability (usually the share of a dose that reaches the circulation, judged against a reference dose that is usually intravenous) came to 95.3%. Further, in data set [3] (PO 2 mg/kg), the AUC(0-t) worked out at 143 µM·h; the highest level (Cmax) was 25.8 µM; the time of peak concentration (Tmax) – broadly, the time from dosing to the highest level – stood at 30 min; the half-life was 302 min.
